# Assay results taken from patent US8889721B2, “Clothianidin, metofluthrin, and piperonyl butoxide mixture for bed bug control” (priority 2012, dated 2014).
# How the values were obtained:
# [1] = tested on: Harlan-strain bed bugs; assay: Residual exposure to mixtures on wood panels, mortality/morbidity and knockdown (Example 7); type: in vivo, Cimex lectularius; settings: for % Morbidity / % Mortality: Residual Efficacy at Day 30
# Description: (§1) A bioassay was performed to determine the knockdown and mortality rates of bed bugs exposed to the residual of mixtures of clothianidin, metofluthrin, and PBO. Two bed bug (Cimex lectularius) strains were used; Harlan-strain which is susceptible to pyrethroids, and Winston Salem-strain which is known to have a 500-fold resistance level to deltamethrin. In this bioassay, a mixture of clothianidin, metofluthrin, and PBO with fumed silica was compared to combinations of clothianidin and metofluthrin, clothianidin and PBO, and clothianidin.
# (§2) Unpainted wood was cut into 6 inch square panels and a DeVries spray booth was used to deliver 1 ml of test substance in an even spray that provided approximately 1 gal/1000 sq. ft. delivery rate. A cone jet nozzle was used approximately 12 inches directly above the wood panels. The panels were allowed to dry and then aged indoors in a climate controlled environment with temperatures ranging from approximately 65 to 72 degrees Fahrenheit. All tests were done in 4 replicates (40 total insects per treatment).
# (§3) Insects were fed a blood meal the day prior to testing. The inner walls of Petri dishes were treated with Fluon to prevent the insects from attaching to the sides of the dishes during treatment.
# (§4) On the day of testing, 10 insects were placed in each Petri dish. The bed bugs were separated with tweezers and observed to be healthy and active before treatments. The Petri dishes were inverted onto the treated surface and gentle tapping was sometimes used to dislodge the insects from the dishes. After 5 minutes, the insects were returned to containers for mortality/morbidity and knockdown observations.
# (§5) Insects were considered moribund when they were knocked down and unable to right themselves when probed. Insects were considered dead when they had no body movement. Untreated controls were handled in the same manner except that they were exposed to water treated wood panels.
# (§6) Insects were exposed to the wood panels on day 1 and day 30. Mortality and morbidity observations were taken until the untreated control mortality reached […] (day 7 following exposure).
# (§7) The bed bugs were observed and recordings were taken at 10, 20, 30, 60 and 240 minutes following exposure to the wood panels. Table 4 provides the percentage of bed bugs from all 4 replicates (40 total insects per treatment) that were knocked down 10 and 240 minutes after exposure to the wood panels.
# [2] = tested on: Winston Salem-strain bed bugs; assay: as above; type: in vivo, Cimex lectularius
# Description: as §1, §2, §3, §4, §5, §6, §7
# [3] = Residual Efficacy at Day 1, 1 day
# [4] = Residual Efficacy at Day 1, 2 day
# [5] = Residual Efficacy at Day 1, 3 day
# [6] = Residual Efficacy at Day 30, 1 DAT
# [7] = Residual Efficacy at Day 30, 2 DAT
# [8] = Residual Efficacy at Day 30, 3 DAT
# [9] = Residual Efficacy at Day 30, 4 DAT
# [10] = Residual Efficacy at Day 30, 5 DAT
# [11] = Residual Efficacy at Day 30, 6 DAT
# [12] = Residual Efficacy at Day 30, 7 DAT
smiles,measurement,setting,value
CN/C(=N\[N+](=O)[O-])NCc1cnc(Cl)s1 [0.4% Cloth.],Knockdown,[1]; Day 1 @ 10 minutes,48%
same,Knockdown,[1]; Day 1 @ 240 minutes,95%
same,Knockdown,[1]; Day 30 @ 10 minutes,20%
same,Knockdown,[1]; Day 30 @ 240 min,95%
same,% Morbidity,[1]; 1 DAT,75%
same,% Mortality,[1]; 1 DAT,23%
same,% Morbidity,[1]; 2 DAT,33%
same,% Mortality,[1]; 2 DAT,68%
same,% Morbidity,[1]; 3 DAT,0%
same,% Mortality,[1]; 3 DAT,100%
same,Knockdown,[2]; Day 1 @ 10 minutes,0%
same,Knockdown,[2]; Day 1 @ 240 minutes,50%
same,Knockdown,[2]; Day 30 @ 10 minutes,3%
same,Knockdown,[2]; Day 30 @ 240 min,28%
same,% Morbidity,[2]; [3],18%
same,% Mortality,[2]; [3],60%
same,% Mortality + Morbidity,[2]; [3],78%
same,% Morbidity,[2]; [4],18%
same,% Mortality,[2]; [4],60%
same,% Mortality + Morbidity,[2]; [4],78%
same,% Morbidity,[2]; [5],12.5%
same,% Mortality,[2]; [5],87.5%
same,% Mortality + Morbidity,[2]; [5],100%
same,% Morbidity,[2]; [6],33%
same,% Mortality,[2]; [6],10%
same,% Morbidity,[2]; [7],28%
same,% Mortality,[2]; [7],20%
same,% Morbidity,[2]; [8],18%
same,% Mortality,[2]; [8],43%
same,% Morbidity,[2]; [9],10%
same,% Mortality,[2]; [9],53%
same,% Morbidity,[2]; [10],8%
same,% Mortality,[2]; [10],63%
same,% Morbidity,[2]; [11],3%
same,% Mortality,[2]; [11],70%
same,% Morbidity,[2]; [12],5%
same,% Mortality,[2]; [12],70%
